Among the data in patent US6410584B1, “Method for inhibiting neoplastic cells with indole derivatives” (Cell Pathways, Inc., priority 1998, dated 2002) are melting point values, retold here.

A word on the melting point: it is the temperature of the solid-liquid transition. Molecule `CCCCCS(=O)(=O)NC(=O)c1ccc2[nH]c(C)c(Cc3ccc(-c4ccccc4)cc3)c2c1` [Compound 95, 3-(biphenyl-4-ylmethyl)-2-methyl-5-(1-pentanesulfonylcarbamoyl)indole] came in with a melting point of 189 to 190 °C.

Consider `CCCCCS(=O)(=O)NC(=O)c1ccc2[nH]c(CCC)c(Cc3ccc(Cl)cc3Cl)c2c1` [Compound 101, 3-(2,4-dichlorobenzyl)-5-(1-pentanesulfonylcarbamoyl)-2-propylindole], for which the melting point lay in the range of 168 to 169 °C.

`CCCCS(=O)(=O)NC(=O)c1ccc2[nH]cc(Cc3ccc(Cl)cc3Cl)c2c1` [Compound 48, 5-(1-butanesulfonylcarbamoyl)-3-(2,4-dichlorobenzyl)indole] came in with a melting point of 165.5 to 166.2 °C.

Consider `CCCCCS(=O)(=O)NC(=O)c1ccc2[nH]c(C)c(Cc3ccc(OCc4ccccc4)cc3)c2c1` [Compound 100, 3-(4-benzyloxybenzyl)-2-methyl-5-(1-pentanesulfonylcarbamoyl)indole], for which the melting point lay in the range of 180 to 184 °C.

Regarding `CCCCS(=O)(=O)NC(=O)c1ccc2c(Cc3ccc(Cl)cc3Cl)c(C)[nH]c2c1` [Compound 90, 6-(1-butanesulfonylcarbamoyl)-3-(2,4-dichlorobenzyl)-2-methylindole], the melting point lay in the range of 249 to 250 °C. With `CCCS(=O)(=O)NC(=O)c1ccc2[nH]c(C)c(Cc3ccc(Cl)cc3Cl)c2c1` [Compound 91, 3-(2,4-dichlorobenzyl)-2-methyl-5-(1-propanesulfonylcarbamoyl)indole], the melting point was in the range of 161 to 163 °C.

As for `CCCCCS(=O)(=O)NC(=O)c1ccc2[nH]c(C)c(Cc3ccccc3Cl)c2c1` [Compound 96, 3-(2-chlorobenzyl)-2-methyl-5-(1-pentanesulfonylcarbamoyl)indole], the melting point is 175 to 177 °C. In turn, `CCCCCCS(=O)(=O)NC(=O)c1ccc2[nH]c(C)c(Cc3ccc(Cl)cc3Cl)c2c1` [Compound 94, 3-(2,4-dichlorobenzyl)-5-(1-hexanesulfonylcarbamoyl)-2-methylindole] came in with a melting point of 183 to 185 °C.

Take `CCCCS(=O)(=O)NC(=O)c1ccc2[nH]c(C)c(C(=O)c3ccc(Cl)cc3Cl)c2c1` [Compound 97, 5-(1-butanesulfonylcarbamoyl)-3-(2,4-dichlorobenzoyl)-2-methylindole]: the melting point is 241 to 243 °C. Regarding `Cc1[nH]c2ccc(C(=O)NS(=O)(=O)C(F)(F)F)cc2c1Cc1ccc(Cl)cc1Cl` [Compound 113, 3-(2,4-dichlorobenzyl)-2-methyl-5-(trifluoromethanesulfonylcarbamoyl)indole], the melting point was in the range of 201 to 205 °C. Molecule `CCCCS(=O)(=O)NC(=O)c1ccc2c(C)c(Cc3ccc(Cl)cc3Cl)[nH]c2c1` [Compound 121, 6-(1-butanesulfonylcarbamoyl)-2-(2,4-dichlorobenzyl)-3-methylindole] displayed a melting point of 215.5 to 216.1 °C. `Cc1[nH]c2ccc(C(=O)NS(=O)(=O)c3ccccc3)cc2c1Cc1ccc(Cl)cc1Cl` [Compound 93, 5-(benzenesulfonylcarbamoyl)-3-(2,4-dichlorobenzyl)-2-methylindole] showed a melting point of 244 to 245 °C. The figure for `Cc1[nH]c2ccc(C(=O)NS(=O)(=O)CCC(C)C)cc2c1Cc1ccc(Cl)cc1Cl` [Compound 98, 3-(2,4-dichlorobenzyl)-2-methyl-5-(3-methyl-1-butanesulfonylcarbamoyl)indole] is 167 to 169 °C.
